Results taken from US10208012B2, “Compounds for treating inflammatory and hyperproliferative diseases” (Board of Regents, The University of Texas System, priority 2013, dated 2019).
Like-named read-outs stand apart in the source and are kept apart here.

Experiments:
Bio-availability in vivo = assay: Bio-availability in vivo
Excerpt: (§1) These formulations may be used in further clinical trials.

[1] = tested on: mantle cell lymphoma cell lines (Mino and Z-138); assay: Thymidine incorporation proliferation assay in mantle cell lymphoma cell lines; assay type: cell-based
Method: (§2) FIG. 1. Effect of Tumeric Derivatives in MCL cells. Six TMX analogs were screened in two mantle cell lymphoma cell lines (Mino and Z-138). These assays were performed by treating cells with increasing doses of TMX (0-25 μM) and analyzed by thymidine incorporation (proliferation assay).
as §2, with “2.” for “1.”, “Turmerax Compounds” for “Tumeric Derivatives”, “MCLs. 10 additional” for “MCL cells. Six”, “analogs derived from compound #6 (from FIG. 1)” for “analogs”
FIG. 3. Effect of Turmerax Compounds in MCLs. Four compounds from FIG. 2 were selected to analyze at concentrations below 1 μM for cell growth inhibition in vitro.
Malignant lymphoma continues to represent a major health issue in the US and worldwide. Non-Hodgkin lymphomas (NHL) are a common, heterogeneous group of primarily (˜85%) B lymphoid cell neoplasms (NHL-B) arising in the B cell lineage of the human immune (lymphoid) system. NHL-Bs are the fifth most common cancer in the USA (˜65,000 new cases/25,000 deaths expected in 2010). Therefore, there is a great need for novel treatment strategies for this deadly cancer, particularly for relapsed/refractory lymphomas. Relapsed/refractory (r/rDLBCL) DLBCL is one of the most difficult scientific challenges and severe unmet therapeutic needs in clinical oncology today. This is due largely to very drug resistant tumor cells with very poor responses (<20% PR/CR) to current “salvage” therapies. Key pathways (NF-kB, AKT, STAT3), controlling cell growth/survival and chemoresistance in DLBCL have been discovered. Since natural compounds such as turmeric can target multiple pathways with low cellular toxicity, novel compounds with higher potency for cancer cells were sought. Initially, 6 novel turmeric analogues were designed and synthesized using cyclic thioketone and different substituted aromatic aldehydes. […] These compounds were named turmerax (TMX) (1-10), and tested them in the two resistant mantle cell lymphoma cell lines (Mino and Z-138). […] Turmerax compounds 1, 3, 5 and 9 were further analyzed at concentrations below 1 μM for cell growth inhibition in vitro. […] Next, the toxicity of these Turmerax compounds (1, 3, 5 and 9) was evaluated in normal human peripheral blood mononuclear cells (PBMC). […] The effectiveness of Turmerax compounds 1 and 5 in four MCL cell lines were examined, four LBCL cell lines (both ABC and GCB-type) and one follicular lymphoma cell line (CJ) in comparison to the wild type (natural) curcumin compound, to which these compounds bear some structural relatedness. The IC50 for Turmerax cmpds.

NIK = assay: Western blotting of NIK in MS cells; assay type: cell-based; conditions: Lipo-TMX-1 0-500 nM, 24 hrs
Method: (§3) FIG. 7. TMX-1 Targets NF-kB and Key Signaling Pathways in DLBCL to Overcome Chemoresistance. Top left, DLBCL cells (MS) were transfect with the 6×-NF-kB-luciferase expression vector for 24 hrs. Transfected cells were treated with PBS (control) or Lipo-TMX-1 (100 nM) for 4 hrs. Cell lysates were used to analyzed for luciferase activity that was normalized with b-gal activity. Top right, TMX-1 inhibited NIK and pAKT in NHL-B cells. MS cells were treated with increasing doses of Lipo-TMX-1 (0-500 nM) for 24 hrs. NIK and pAKT protein expressions were determined by Western blotting. Bottom, Doxorubicin resistant cells are sensitive to TMX-1. MS cells are resistant to Dox, but are sensitive to TMX-1. McA DLBCL cells are sensitive to both doxorubicin and TMX-1.

MS cells = assay: Sensitivity of doxorubicin-resistant DLBCL cells; assay type: cell-based
Method: as §3

McA DLBCL cells = assay: Sensitivity of doxorubicin-sensitive DLBCL cells; assay type: cell-based
Method: as §3

pAKT = assay: Western blotting of pAKT in MS cells; assay type: cell-based; conditions: Lipo-TMX-1 0-500 nM, 24 hrs
Method: as §3

DLBCL cell line (TJ) = assay: Combination cell proliferation assays in DLBCL cell line (TJ); assay type: cell-based; conditions: TJ cells
Method: FIGS. 14A-B. A representative DLBCL cell line (TJ) was treated with TMX-1 in a dose-dependent manner alone or in combination with Ibrutinib (IB) and carfilzomib (CFZ) and cell proliferation assays were analyzed.
Recent molecularly targeted therapy, as opposed to classic chemotherapy, has improved the treatment of lymphoid malignancies. At the forefront of clinical development are ibrutinib, an inhibitor of Bruton's tyrosine kinase (btk) and carfilzomib (CFZ), a second-generation proteasome inhibitor.

[2] = tested on: melanoma, gastric, pancreatic, and glioma cancer cell lines; assay: MTT cell growth inhibition in NF-kB-associated solid tumor cancer cell lines; assay type: cell-based
Excerpt: FIG. 11. Effect of TMX-1 in NF-kB-Associated Cancers. Representative cancer cell lines for melanoma, gastric, pancreatic, and glioma were used to analyzed for cell growth inhibition activity of TMX-1 using MTT assays.
as §1

[3] = Water solubility, suspended in water for 24 hrs; assay type: physicochemical
Excerpt: FIG. 8. Water Solubility of Lipo-Turmerax-1 Compound. Liposomal TMX-1 and TMX-1 compounds were suspended in water for 24 hrs.
as §1

[4] = tested on: human DLBCL cell lines (Dox-sensitive and Dox-resistant); assay: 72-hr proliferation assays in doxorubicin-sensitive and -resistant DLBCL cell lines; assay type: cell-based
Method: FIGS. 13A-B. TMX-1 inhibits DLBCL cell proliferation. (FIG. 13A) 24 representative DLBCL cell lines were treated with TMX-1 in dose-dependent manner and analyzed by thymidine incorporation assays for cell growth inhibition. (FIG. 13B) Effect of TMX-1 in doxorubicin highly sensitive and highly resistant DLBCL cell lines (Pham et al., 2011).
DLBCL are currently initially treated fairly successfully with R-CHOP frontline chemotherapy (˜70-80% initial remission rate), but relapsed/refractory DLBCL occurs frequently (˜40% within 2-3 yrs), with very poor salvage therapy options (˜20% PR/CR). A unique repertoire of human DLBCL cell lines were developed (Ford et al., 1990; Pham et al., 2010) that can be classified into two subgroups, doxorubicin (a key component in CHOP)-sensitive and doxorubicin-resistant. These cell lines were screened against TMX-1 in a dose-dependent manner using 72-hr proliferation assays (FIG. 13A).

[5] = tested on: normal human peripheral blood mononuclear cells (PBMC); assay: Cytotoxicity in normal PBMC by thymidine incorporation; assay type: cell-based; conditions: minimal toxicity stated for drug concentration below 600 nM
Excerpt: FIG. 4. Effect of Turmerax compounds in normal peripheral blood mononuclear cells (PBMC). Turmeric analogues (1, 3, 5, and 9) were evaluate for cytoxicity in normal human peripheral blood mononuclear cells (PBMC) by thymidine incorporation assays.
Malignant lymphoma continues to represent a major health issue in the US and worldwide. Non-Hodgkin lymphomas (NHL) are a common, heterogeneous group of primarily (˜85%) B lymphoid cell neoplasms (NHL-B) arising in the B cell lineage of the human immune (lymphoid) system. NHL-Bs are the fifth most common cancer in the USA (˜65,000 new cases/25,000 deaths expected in 2010). Therefore, there is a great need for novel treatment strategies for this deadly cancer, particularly for relapsed/refractory lymphomas. Relapsed/refractory (r/rDLBCL) DLBCL is one of the most difficult scientific challenges and severe unmet therapeutic needs in clinical oncology today. This is due largely to very drug resistant tumor cells with very poor responses (<20% PR/CR) to current “salvage” therapies. Key pathways (NF-kB, AKT, STAT3), controlling cell growth/survival and chemoresistance in DLBCL have been discovered. Since natural compounds such as turmeric can target multiple pathways with low cellular toxicity, novel compounds with higher potency for cancer cells were sought. Initially, 6 novel turmeric analogues were designed and synthesized using cyclic thioketone and different substituted aromatic aldehydes. […] These compounds were named turmerax (TMX) (1-10), and tested them in the two resistant mantle cell lymphoma cell lines (Mino and Z-138). […] Turmerax compounds 1, 3, 5 and 9 were further analyzed at concentrations below 1 μM for cell growth inhibition in vitro. […] Next, the toxicity of these Turmerax compounds (1, 3, 5 and 9) was evaluated in normal human peripheral blood mononuclear cells (PBMC). […]

LY10 cells = assay: Annexin V apoptosis assay; assay type: cell-based; conditions: 500 nM drug concentration, 24 hrs
Method: (§4) FIGS. 12A-C. TMX-1 induces apoptosis in lymphoma cells. (FIG. 12A) A representative lymphoma cell line (LY10) was treated with TMX-1 in a dose-dependent manner for 24 hrs. Apoptosis was determined by Annexin V assays. (FIG. 12B) TMX-1 activates phospho-H2AX (DNA damage marker) and induces bcl-2 cleaving in lymphoma cells. (FIG. 12C) A representative DLBCL cell line (MS) was transfected with a NF-kB-luciferase reporter for 24 hrs. Cells were treated with TMX-1 as indicated.
(§5) To determine whether TMX-1 can induce apoptosis in lymphoma cells, we treated a diffuse large cell lymphoma (DLBCL) cell line (LY-10) with TMX-1 in a dose-dependent manner for 24 hrs. Control and treated cells were analyzed for apoptosis using Annexin V assays. […] Next, we test whether TMX-1 can induces DNA damage in LY-10 cells. […] The inventors also examined whether TMX-1 can inhibit NF-kB activity in lymphoma cells. For these studies, a DLBCL cell line (MS) was transfected with a NF-kB luciferase reporter for 24 hrs, at which time cells were treated with TMX-1 in a dose- and time-dependent manner. […] There are many NF-kB inhibitors commercially available that have been tested in many cancer systems, but none has ever reached the clinic to cancer treatment. The reason for this is typically because these agents usually target upstream of NF-kB signaling pathways, leading to many unwanted side effects.

bcl-2 = bcl-2 cleaving in LY-10 cells; assay type: cell-based
Method: as §4, §5

pH2AX = assay: DNA damage marker in LY-10 cells; assay type: cell-based
Method: as §4, §5

[6] = Mino and Z-138, doses 0-25 μM, thymidine incorporation, read-out: IC50, cell growth inhibition
[7] = further analyzed at concentrations below 1 μM, read-out: IC50, cell growth inhibition

Q: With `N#Cc1cccc(/C=C2\CSC/C(=C\c3cccc(C#N)c3)C2=O)c1` [Turmerax 1, 3,5-bis[(3-cyanophenyl)methylene]-tetrahydrothiopyran-4-one] as the molecule, how does the bio-availability (Bio-availability in vivo) read?
A: reduced bio-availability

Q: What about the IC50 [1, 6] of the same molecule?
A: < 1000 nM

Q: And the IC50 [1, 7]?
A: 100 to 200 nM

Q: What about the NIK protein expression (NIK) of the same molecule?
A: inhibited

Q: What about the “sensitivity of MS cells” value (MS cells) of the same molecule?
A: sensitive

Q: What about the “sensitivity of McA DLBCL cells” value (McA DLBCL cells) of the same molecule?
A: sensitive

Q: And the pAKT protein expression (pAKT)?
A: inhibited

Q: What about the “effectiveness of combination with ibrutinib compared with combination with CFZ” value (DLBCL cell line (TJ)) of the same molecule?
A: more effective than TMX-1 in combination with CFZ

Q: What about the “interaction with ibrutinib in inhibiting lymphoma cell growth” value (DLBCL cell line (TJ)) of the same molecule?
A: highly synergistic

Q: And the “inhibition of solid tumor cancer cells” value [2]?
A: highly effective

Q: And the precipitation in water [3]?
A: shows precipitation

Q: And the “activity in Dox-sensitive vs. Dox-resistant DLBCL cell lines” value [4]?
A: equivalent

Q: What about the “toxicity to PBMC” value [5] of the same molecule?
A: only minimal cell toxicity

Q: What about the apoptosis induced (LY10 cells) of the same molecule?
A: up to 80%

Q: What about the bcl-2 anti-apoptotic protein (bcl-2) of the same molecule?
A: cleaved

Q: What about the “pH2AX (DNA damage marker)” value (pH2AX) of the same molecule?
A: significantly increased

Q: Which IC50 [1, 6] does the source give for `O=C1/C(=C/c2ccc(Cl)c(Cl)c2)CSC/C1=C\c1ccc(Cl)c(Cl)c1` [Turmerax 2, 3,5-bis[(3,4-dichlorophenyl)methylene]-tetrahydrothiopyran-4-one] here?
A: 3000 to 10000 nM

Q: Which IC50 ([1]; read-out: IC50, cell growth inhibition, Mino and Z-138, doses 0-25 μM, thymidine incorporation) does the source give for `O=C1/C(=C/c2ccc([N+](=O)[O-])c(O)c2)CSC/C1=C\c1ccc([N+](=O)[O-])c(O)c1` [Turmerax 3, 3,5-bis[(3-hydroxy-4-nitrophenyl)methylene]-tetrahydrothiopyran-4-one] here?
A: < 1000 nM

Q: What about the IC50 ([1]; read-out: IC50, cell growth inhibition, further analyzed at concentrations below 1 μM) of the same molecule?
A: 200 to 800 nM

Q: What about the “toxicity to PBMC” value [5] of the same molecule?
A: only minimal cell toxicity

Q: With `COc1ccc(/C=C2\CSC/C(=C\c3ccc(OC)c(OC)c3OC)C2=O)c(OC)c1OC` [Turmerax 4, 3,5-bis[(2,3,4-trimethoxyphenyl)methylene]-tetrahydrothiopyran-4-one] as the molecule, how does the IC50 [1, 6] read?
A: > 25000 nM

Q: Which results are given for `O=C1/C(=C/c2ccc(Cl)c([N+](=O)[O-])c2)CSC/C1=C\c1ccc(Cl)c([N+](=O)[O-])c1` [Turmerax 5, 3,5-bis[(3-nitro-4-chlorophenyl)methylene]-tetrahydrothiopyran-4-one]?
A: IC50 [1, 6]: < 1000 nM; IC50 [1, 7]: 100 to 200 nM

Q: With `CCOC(=O)c1ccc(/C=C2\CSC/C(=C\c3ccc(C(=O)OCC)cc3)C2=O)cc1` [Turmerax 6, 3,5-bis[(4-ethoxycarbonylphenyl)methylene]-tetrahydrothiopyran-4-one] as the molecule, how does the IC50 [1, 6] read?
A: 3000 to 10000 nM

Q: For `COc1ccc(/C=C2\CSC/C(=C\c3ccc(OC)c(C)c3C)C2=O)c(C)c1C` [Turmerax 7, 3,5-bis[(3,4-dimethyl-4-methoxyphenyl)methylene]-tetrahydrothiopyran-4-one], which IC50 [1, 6] is on record?
A: > 25000 nM

Q: Which IC50 [1, 6] does the source give for `O=C1/C(=C/c2c(F)ccc(Cl)c2F)CSC/C1=C\c1c(F)ccc(Cl)c1F` [Turmerax 8, 3,5-bis[(2,6-difluoro-3-chlorophenyl)methylene]-tetrahydrothiopyran-4-one] here?
A: > 25000 nM

Q: What does the source list for `N#Cc1ccc(/C=C2\CSC/C(=C\c3ccc(C#N)cc3)C2=O)cc1` [Turmerax 9]?
A: IC50 [1, 6]: < 1000 nM; IC50 [1, 7]: 200 to 800 nM; toxicity to PBMC [5]: some toxicity

Q: For `O=C1/C(=C/c2ccc(Br)cc2)CSC/C1=C\c1ccc(Br)cc1` [Turmerax 10, 3,5-bis[(4-bromophenyl)methylene]-tetrahydrothiopyran-4-one], which IC50 [1, 6] is on record?
A: 3000 to 10000 nM

Q: For `COc1cccc2c1C(=O)c1c(O)c3c(c(O)c1C2=O)C[C@@](O)(C(=O)CO)C[C@@H]3O[C@H]1C[C@H](N)[C@H](O)[C@H](C)O1` [doxorubicin, reference compound], which “sensitivity of MS cells” value (MS cells) is on record?
A: resistant

Q: And the “sensitivity of McA DLBCL cells” value (McA DLBCL cells)?
A: sensitive
